{"source": "paper PMC6442119", "about": "“The antitumor activity of CYB-L10, a human topoisomerase IB catalytic inhibitor” (Journal of Enzyme Inhibition and Medicinal Chemistry, 2019)", "key": {"[1]": {"experiment": "Pharmacokinetic study in rat", "type": "in vivo", "conditions": "male, Sprague-Dawley, plasma, SD rats", "experimental": "Blood samples (200 µL) were collected into heparinized tubes via the jugular vein at the following times: 0.083, 0.25, 0.5, 1, 2, 5, 7, and 24 h after dosing. Plasma samples (100 µL) were obtained after centrifugation for 10 min at 3000 rpm and stored at −20 °C until used for analysis. The plasma was detected through LC-MS/MS.\nThe in vivo pharmacokinetic (PK) study of CYB-L10 was conducted in SD rats. The SD rats were divided into two groups (n = 2) and treated by i.v. injection at 1 mg/kg dose and i.g. at 5 mg/kg dose, respectively. The plasma samples were collected up to 24 h postdose and measured for the concentration of CYB-L10. By i.v. administration, the AUC0→∞ was 241 ± 40 h·ng/mL, and T1/2 was 18.4 ± 5.12 h."}, "[2]": {"test_system": "MCF-7", "experiment": "MTT assay", "type": "cell-based", "conditions": "Homo sapiens, MCF7; Parental cell line MCF-7, MTT, 72 h"}, "[3]": {"test_system": "SF-268", "experiment": "NCI60 assay", "type": "cell-based", "conditions": "Homo sapiens; CNS cancer, SF-268, 48 h", "experimental": "(§1) CYB-L10 was tested using the protocols by the NCI, which has been described previously. […] The overall antiproliferative potential is quantified as a mean-graph midpoint (MGM). […] It was selected and submitted to National Cancer Institute (NCI, USA) for a developmental therapeutics assay against the 60 clinical tumor cell lines representing nine tissue types (NCI60)[23–25]. The tumor cells were incubated with CYB-L10 for 48 h and stained with sulphorhodamine B dye. Cell growth inhibition (GI50) was calculated relative to the control without compound."}, "[4]": {"test_system": "SR", "experiment": "NCI60 assay", "type": "cell-based", "conditions": "Homo sapiens, Leukemia, 48 h", "experimental": "as §1"}, "[5]": {"test_system": "SW-620", "experiment": "NCI60 assay", "type": "cell-based", "conditions": "Homo sapiens; Colon cancer, SW-620, 48 h", "experimental": "as §1"}, "[6]": {"test_system": "SK-MEL-2", "experiment": "NCI60 assay", "type": "cell-based", "conditions": "Homo sapiens; Melanoma, SK-MEL-2, 48 h", "experimental": "as §1"}, "[7]": {"test_system": "ACHN", "experiment": "NCI60 assay", "type": "cell-based", "conditions": "Homo sapiens, Renal cancer, 48 h", "experimental": "as §1"}, "[8]": {"test_system": "UACC-62", "experiment": "NCI60 assay", "type": "cell-based", "conditions": "Homo sapiens; Melanoma, UACC-62, 48 h", "experimental": "as §1"}, "[9]": {"test_system": "OVCAR-8", "experiment": "NCI60 assay", "type": "cell-based", "conditions": "Homo sapiens; Ovarian cancer, OVCAR-8, 48 h", "experimental": "as §1"}, "[10]": {"test_system": "OVCAR-5", "experiment": "NCI60 assay", "type": "cell-based", "conditions": "Homo sapiens; Ovarian cancer, OVCAR-5, 48 h", "experimental": "as §1"}, "[11]": {"test_system": "SNB-19", "experiment": "NCI60 assay", "type": "cell-based", "conditions": "Homo sapiens; CNS cancer, SNB-19, 48 h", "experimental": "as §1"}, "[12]": {"test_system": "MDA-MB-231/ATCC", "experiment": "NCI60 assay", "type": "cell-based", "conditions": "Homo sapiens, Breast cancer, 48 h", "experimental": "as §1"}, "[13]": {"test_system": "NCI-H460", "experiment": "NCI60 assay", "type": "cell-based", "conditions": "Homo sapiens; Non-small cell lung cancer, NCI-H460, 48 h", "experimental": "as §1"}, "[14]": {"test_system": "MDA-MB-435", "experiment": "NCI60 assay", "type": "cell-based", "conditions": "Homo sapiens; Melanoma, MDA-MB-435, 48 h", "experimental": "as §1"}, "[15]": {"test_system": "EKVX", "experiment": "NCI60 assay", "type": "cell-based", "conditions": "Homo sapiens, Non-small cell lung cancer, 48 h", "experimental": "as §1"}, "[16]": {"test_system": "IGROV1", "experiment": "NCI60 assay", "type": "cell-based", "conditions": "Homo sapiens, IGROV-1; Ovarian cancer, IGROV1, 48 h", "experimental": "as §1"}, "[17]": {"test_system": "UO-31", "experiment": "NCI60 assay", "type": "cell-based", "conditions": "Homo sapiens; Renal cancer, UO-31, 48 h", "experimental": "as §1"}, "[18]": {"test_system": "LOX IMVI", "experiment": "NCI60 assay", "type": "cell-based", "conditions": "Homo sapiens, Melanoma, 48 h", "experimental": "as §1"}, "[19]": {"test_system": "SK-MEL-28", "experiment": "NCI60 assay", "type": "cell-based", "conditions": "Homo sapiens; Melanoma, SK-MEL-28, 48 h", "experimental": "as §1"}, "[20]": {"test_system": "MALME-3M", "experiment": "NCI60 assay", "type": "cell-based", "conditions": "Homo sapiens, Melanoma, 48 h", "experimental": "as §1"}, "[21]": {"test_system": "NCI-H322M", "experiment": "NCI60 assay", "type": "cell-based", "conditions": "Homo sapiens, Non-small cell lung cancer, 48 h", "experimental": "as §1"}, "[22]": {"test_system": "786-0", "experiment": "NCI60 assay", "type": "cell-based", "conditions": "Homo sapiens; Renal cancer, 786-0, 48 h", "experimental": "as §1"}, "[23]": {"test_system": "HCT-15", "experiment": "NCI60 assay", "type": "cell-based", "conditions": "Homo sapiens; Colon cancer, HCT-15, 48 h", "experimental": "as §1"}, "[24]": {"test_system": "OVCAR-3", "experiment": "NCI60 assay", "type": "cell-based", "conditions": "Homo sapiens; Ovarian cancer, OVCAR-3, 48 h", "experimental": "as §1"}, "[25]": {"test_system": "DU-145", "experiment": "NCI60 assay", "type": "cell-based", "conditions": "Homo sapiens, Prostate cancer, DU-145, 48 h", "experimental": "as §1"}, "[26]": {"test_system": "HCC-2998", "experiment": "NCI60 assay", "type": "cell-based", "conditions": "Homo sapiens; Colon cancer, HCC-2998, 48 h", "experimental": "as §1"}, "[27]": {"test_system": "U251", "experiment": "NCI60 assay", "type": "cell-based", "conditions": "Homo sapiens, U-251; CNS cancer, U251, 48 h", "experimental": "as §1"}, "[28]": {"test_system": "NCI-H522", "experiment": "NCI60 assay", "type": "cell-based", "conditions": "Homo sapiens; Non-small cell lung cancer, NCI-H522, 48 h", "experimental": "as §1"}, "[29]": {"test_system": "MCF7", "experiment": "NCI60 assay", "type": "cell-based", "conditions": "Homo sapiens, Breast cancer, MCF7, 48 h", "experimental": "as §1"}, "[30]": {"test_system": "NCI-H226", "experiment": "NCI60 assay", "type": "cell-based", "conditions": "Homo sapiens; Non-small cell lung cancer, NCI-H226, 48 h", "experimental": "as §1"}, "[31]": {"test_system": "CAKI-1", "experiment": "NCI60 assay", "type": "cell-based", "conditions": "Homo sapiens; Renal cancer, CAKI-1, 48 h", "experimental": "as §1"}, "[32]": {"test_system": "SF-539", "experiment": "NCI60 assay", "type": "cell-based", "conditions": "Homo sapiens; CNS cancer, SF-539, 48 h", "experimental": "as §1"}, "[33]": {"test_system": "A549/ATCC", "experiment": "NCI60 assay", "type": "cell-based", "conditions": "Homo sapiens, Non-small cell lung cancer, 48 h", "experimental": "as §1"}, "[34]": {"test_system": "MDA-MB-468", "experiment": "NCI60 assay", "type": "cell-based", "conditions": "Homo sapiens; Breast cancer, MDA-MB-468, 48 h", "experimental": "as §1"}}}
{"compound": "O=C1c2cccnc2C(=O)c2c1c(C(=O)OCCN1CCOCC1)c1ccccn21", "note": "[CYB-L10]", "values": [{"measurement": "AUC(0-inf)", "setting": "[1]; iv, i.v. 1 mg/kg", "value": "241 ± 40", "unit": "ng·h/mL"}, {"measurement": "half-life", "setting": "[1]; iv, i.v. 1 mg/kg", "value": "18.4 ± 5.12", "unit": "h"}, {"measurement": "bioavailability", "setting": "[1]; oral, i.g. 5 mg/kg vs i.v. 1 mg/kg, read-out: F (bioavailability)", "value": 6.3, "unit": "%"}, {"measurement": "AUC(0-inf)", "setting": "[1]; po, i.g. 5 mg/kg", "value": "76 ± 16.5", "unit": "ng·h/mL"}, {"measurement": "Cmax", "setting": "[1]; po, i.g. 5 mg/kg", "value": "24.7 ± 6.59", "unit": "ng/mL"}, {"measurement": "Tmax", "setting": "[1]; po, i.g. 5 mg/kg", "value": "0.46 ± 0.1", "unit": "h"}, {"measurement": "half-life", "setting": "[1]; po, i.g. 5 mg/kg", "value": "18.4 ± 7.77", "unit": "h"}, {"measurement": "GI50", "setting": "[2]", "value": 91, "unit": "nM"}, {"measurement": "GI50", "setting": "[3]", "value": 18.5, "unit": "nM"}, {"measurement": "GI50", "setting": "[4]", "value": "< 10", "unit": "nM"}, {"measurement": "GI50", "setting": "[5]", "value": "< 10", "unit": "nM"}, {"measurement": "GI50", "setting": "[6]", "value": 46.2, "unit": "nM"}, {"measurement": "GI50", "setting": "[7]", "value": "< 10", "unit": "nM"}, {"measurement": "GI50", "setting": "[8]", "value": "< 10", "unit": "nM"}, {"measurement": "GI50", "setting": "[9]", "value": 28.1, "unit": "nM"}, {"measurement": "GI50", "setting": "[10]", "value": 648, "unit": "nM"}, {"measurement": "GI50", "setting": "[11]", "value": "< 10", "unit": "nM"}, {"measurement": "GI50", "setting": "[12]", "value": 1620, "unit": "nM"}, {"measurement": "GI50", "setting": "[13]", "value": "< 10", "unit": "nM"}, {"measurement": "GI50", "setting": "[14]", "value": 64.6, "unit": "nM"}, {"measurement": "GI50", "setting": "[15]", "value": 1360, "unit": "nM"}, {"measurement": "GI50", "setting": "[16]", "value": 46.2, "unit": "nM"}, {"measurement": "GI50", "setting": "[17]", "value": 13, "unit": "nM"}, {"measurement": "GI50", "setting": "[18]", "value": "< 10", "unit": "nM"}, {"measurement": "GI50", "setting": "[19]", "value": 54.6, "unit": "nM"}, {"measurement": "GI50", "setting": "[20]", "value": 45, "unit": "nM"}, {"measurement": "GI50", "setting": "[21]", "value": 97.7, "unit": "nM"}, {"measurement": "GI50", "setting": "[22]", "value": 29, "unit": "nM"}, {"measurement": "GI50", "setting": "[23]", "value": 39.5, "unit": "nM"}, {"measurement": "GI50", "setting": "[24]", "value": 170, "unit": "nM"}, {"measurement": "GI50", "setting": "[25]", "value": 30.5, "unit": "nM"}, {"measurement": "GI50", "setting": "[26]", "value": 252, "unit": "nM"}, {"measurement": "GI50", "setting": "[27]", "value": 10.9, "unit": "nM"}, {"measurement": "GI50", "setting": "[28]", "value": 11.9, "unit": "nM"}, {"measurement": "GI50", "setting": "[29]", "value": "< 10", "unit": "nM"}, {"measurement": "GI50", "setting": "[30]", "value": 28.9, "unit": "nM"}, {"measurement": "GI50", "setting": "[31]", "value": 33.9, "unit": "nM"}, {"measurement": "GI50", "setting": "[32]", "value": "< 10", "unit": "nM"}, {"measurement": "GI50", "setting": "[33]", "value": 20.5, "unit": "nM"}, {"measurement": "GI50", "setting": "[34]", "value": 1820, "unit": "nM"}]}
